Reference: US10576166B2, “Liver specific delivery of messenger RNA” (TRANSLATE BIO, INC., priority 2009, dated 2020)

Key:
[1] = system: codon-optimized firefly luciferase mRNA in liver; assay: In situ hybridization of liver sections with 35S-labeled riboprobes; format: in vivo, CD-1 mice; details: livers of injected animals, 100× magnification, FIG. 4A
Method: (§1) All studies were performed using female CD-1 mice of approximately 3-weeks age at the beginning of each experiment. Samples were introduced by a single bolus tail-vein injection of an equivalent total dose of 200 μg of encapsulated FFL mRNA. Four hours post-injection the mice were sacrificed and perfused with saline.
(§2) The liver and spleen of each mouse was harvested, apportioned into three parts, and stored in either, (i) 10% neutral buffered formalin, (ii) snap-frozen and stored at −80° C. for bioluminescence analysis (see below), or for in situ hybridization studies, or (iii) liver sections were isolated in isopentane (2-methylbutane) bath, maintained at −35° C., rinsed with 1×PBS, lightly patted with a kimwipe to remove any excess fluid, placed in the bath for approximately 5-7 minutes, after which the liver was removed, wrapped in foil and stored in a small sterile plastic bag at −80° C. until ready for assay.
Slide preparation and analysis was performed as follows: Each liver was frozen at −35° C. according to the procedure described above. The frozen livers were cut into 6 micrometer sections and mounted onto glass microscope slides. […]
Photographic development was carried out in Kodak D-19. Sections were counterstained lightly with cresyl violet and analyzed using brightfield and darkfield microscopy. […]

[2] = system: firefly luciferase protein in hepatocytes; assay: Immunohistochemical analysis of liver with anti-firefly antibody; format: in vivo; details: FFL mRNA in lipid transfer vehicle of cholesterol, DOPE, DLinDMA and DMG-PEG2000; treated mice, FIGS. 5B and 5C
Text: FIG. 5 illustrates immunohistochemical staining of mouse livers for the detection of firefly luciferase protein. […] Luciferase protein is observed throughout the cytoplasm of the hepatocytes. The abbreviations (S) and (H) correspond to sinusoidal cells and hepatocytes, respectively.
The FFL mRNA was packaged and delivered via a lipid transfer vehicle formulation consisting of cholesterol, DOPE, DLinDMA, and DMG-PEG2000 in a manner similar to that described supra.
The translation of the FFL mRNA into its respective protein has been successfully identified via immunohistochemical analysis (FIG. 5).

[3] = system: firefly luciferase protein in livers and spleens; assay: Bioluminescence assay of expressed firefly luciferase in liver and spleen (biodistribution analysis); format: in vivo; details: female CD-1 mice, single 200 μg i.v. dose of encapsulated FFL mRNA, 4 hours post-injection
Method: as §1, §2
The bioluminescence assay was conducted using a Promega Luciferase Assay System (Item # E1500 Promega). […]
The Luciferase Assay Reagent was prepared by adding 10 mL of Luciferase Assay Buffer to Luciferase Assay Substrate and mix via vortex. […] Each plate was inserted into the appropriate chambers using a Molecular Device Flex Station instrument and measure the luminescence (measured in relative light units (RLU)). […]

Compound | Detection of FFL mRNA in liver, dark field illumination, antisense probe [1] | Detection of expressed firefly protein by immunohistochemistry [2] | Luminescence / mRNA delivery in liver versus spleen [3]
FFL mRNA: Codon-optimized firefly luciferase messenger RNA, SEQ ID NO: 1, with 5′ Cap1 and 3′ poly(A) tail of approximately 200 nucleotides | detected as bright spots | can be observed in the hepatocytes of treated mice | 
CC(C)CCCC(C)C1CCC2C3CC=C4CC(OC(=O)CCc5cnc[nH]5)CCC4(C)C3CCC12C [ICE, (3S,10R,13R,17R)-10,13-dimethyl-17-((R)-6-methylheptan-2-yl)-2,3,4,7,8,9,10,11,12,13,14,15,16,17-tetradecahydro-1H-cyclopenta[a]phenanthren-3-yl 3-(1H-imidazol-4-yl)propanoate] |  |  | enriched delivery of mRNA to liver versus spleen
